Experimental data: patent US20140371244A1, “METHOD FOR TREATING PROSTATE CANCER BY USE OF PHARMACEUTICAL COMPOSITION CONTAINING A3 ADENOSINE RECEPTOR AGONIST” (priority 2009, published 2014)

Test system: human colorectal cancer HCT 116 cells
Assay: Cell cycle analysis (FACS) in HCT 116 cells
Assay type: cell-based
Conditions: 40 μM, 24 and 36 hours
Method: Cells were treated with 40 μM of thio-Cl-IB-MECA and cultured for 24 and 36 hours, and the cell cycle of the cells was analyzed by flow cytometer analysis (FACS). Specifically, cells were diluted with 10% FBS-containing medium to a density of 1.0×10^6 cells per 100 mm culture dish and cultured under the conditions of 37° C. and 5% CO2 for 24 hours, followed by washing twice with PBS. Thio-Cl-IB-MECA was diluted in 10% FBS-containing medium to a concentration of 40 μM, and then 10 ml of the culture medium prepared in the 100 mm culture dish was added thereto and cultured for a given time. The non-adherent cells and adherent cells in the cell medium were collected and washed twice with PBS, after which 500 μL of 100% cold methanol was added thereto and the cells were fixed at 4° C. The cells were washed twice with PBS and allowed to stand in RNase A-containing solution for 30 minutes, after which the cells were stained with propidium iodide (PI) buffer for 5 minutes. After removal of the PI buffer, the cells were transferred into a polystyrene round-bottom tube, and the cycle of the cells was analyzed by FACScalibur® flow cytometry.

## CNC(=O)[C@H]1S[C@@H](n2cnc3c(NCc4cccc(I)c4)nc(Cl)nc32)[C@H](O)[C@@H]1O [thio-Cl-IB-MECA, 2-chloro-N^6-(3-iodobenzyl)-4′-thioadenosine-5′-N-methyluronamide]
  G1 phase of cell cycle, HCT 116: an increase in the G1 phase
